Laboratory results reported in US12492193B2, “Pyrazole derivatives for the treatment of cystic fibrosis” (Fondazione Istituto Italiano Di Tecnologia, priority 2017, dated 2025).

biological target: T1, mutant CFTR (Homo sapiens, UniProt P13569, DEL508-508); assay: Fluorescence (HS-YFP) assay for CFTR activity, corrector assay; assay type: cell-based; details: CFBE41o- and FRT cells with stable expression of mutant CFTR, 24 h compound treatment
T1 construct: expressed in transfected cells
Procedure: Fluorescence Assay for CFTR Activity
Mutant CFTR activity was determined with the functional assay based on the halide-sensitive yellow fluorescent protein, HS-YFP (Galietta et al., FEBS Lett 499: 220-224, 2001). CFBE41o- and FRT cells with stable expression of mutant CFTR and HS-YFP were plated on clear-bottom 96-well black microplates (Code 3603, Corning Life Sciences) at a density of 50,000 cells/well and kept at 37° C. in 5% CO2 for 24 hours. For the corrector assay, cells were treated for further 24 hours with test compounds, vehicle (DMSO), or the positive control VX-809. After treatment, the culture medium was removed and cells in each well were stimulated for 30 min at 37° C. with 60 μL PBS (containing 137 mM NaCl, 2.7 mM KCl, 8.1 mM Na2HPO4, 1.5 mM KH2PO4, 1 mM CaCl2, and 0.5 mM MgCl2) plus forskolin (20 μM) and genistein (50 μM).
For determination of potentiator activity on G551D-CFTR or G1349D-CFTR, cells were directly stimulated with forskolin plus test compound without previous incubation at low temperature. At the time of assay, microplates carrying CFBE41o- or FRT cells were transferred to microplate readers (BMG Labtech) equipped with high-quality excitation (HQ500/20X: 500±10 nm) and emission (HQ535/30M: 535±15 nm) filters for YFP (Chroma Technology). The assay consisted of a continuous 14 s fluorescence reading with 2 s before and 12 s after injection of an iodide-containing solution (165 μL of a modified PBS containing I^− instead of Cl^−; final I^− concentration in the well: 100 mM). Data were normalized to the initial background-subtracted fluorescence. Enhanced CFTR activity, induced by correctors and/or potentiators, results in accelerated I^− influx that in turn causes faster HS-YFP quenching (Pedemonte et al., Mol Pharmacol 68:1736-1746, 2005; Pedemonte et al., J Clin Invest 115:2564-2571, […]). To determine fluorescence quenching rate associated with I^− influx, the […] 10 s of data for each well were fitted with an exponential function to extrapolate initial slope (dF/dt).
EC50 obtained are illustrated in table 1 wherein +: EC50>2 μM; ++: 1.0 μM<EC50<2 μM; +++: EC50<1 μM.

T1 sequence (P13569 with tags, fused parts or gaps DEL508-508): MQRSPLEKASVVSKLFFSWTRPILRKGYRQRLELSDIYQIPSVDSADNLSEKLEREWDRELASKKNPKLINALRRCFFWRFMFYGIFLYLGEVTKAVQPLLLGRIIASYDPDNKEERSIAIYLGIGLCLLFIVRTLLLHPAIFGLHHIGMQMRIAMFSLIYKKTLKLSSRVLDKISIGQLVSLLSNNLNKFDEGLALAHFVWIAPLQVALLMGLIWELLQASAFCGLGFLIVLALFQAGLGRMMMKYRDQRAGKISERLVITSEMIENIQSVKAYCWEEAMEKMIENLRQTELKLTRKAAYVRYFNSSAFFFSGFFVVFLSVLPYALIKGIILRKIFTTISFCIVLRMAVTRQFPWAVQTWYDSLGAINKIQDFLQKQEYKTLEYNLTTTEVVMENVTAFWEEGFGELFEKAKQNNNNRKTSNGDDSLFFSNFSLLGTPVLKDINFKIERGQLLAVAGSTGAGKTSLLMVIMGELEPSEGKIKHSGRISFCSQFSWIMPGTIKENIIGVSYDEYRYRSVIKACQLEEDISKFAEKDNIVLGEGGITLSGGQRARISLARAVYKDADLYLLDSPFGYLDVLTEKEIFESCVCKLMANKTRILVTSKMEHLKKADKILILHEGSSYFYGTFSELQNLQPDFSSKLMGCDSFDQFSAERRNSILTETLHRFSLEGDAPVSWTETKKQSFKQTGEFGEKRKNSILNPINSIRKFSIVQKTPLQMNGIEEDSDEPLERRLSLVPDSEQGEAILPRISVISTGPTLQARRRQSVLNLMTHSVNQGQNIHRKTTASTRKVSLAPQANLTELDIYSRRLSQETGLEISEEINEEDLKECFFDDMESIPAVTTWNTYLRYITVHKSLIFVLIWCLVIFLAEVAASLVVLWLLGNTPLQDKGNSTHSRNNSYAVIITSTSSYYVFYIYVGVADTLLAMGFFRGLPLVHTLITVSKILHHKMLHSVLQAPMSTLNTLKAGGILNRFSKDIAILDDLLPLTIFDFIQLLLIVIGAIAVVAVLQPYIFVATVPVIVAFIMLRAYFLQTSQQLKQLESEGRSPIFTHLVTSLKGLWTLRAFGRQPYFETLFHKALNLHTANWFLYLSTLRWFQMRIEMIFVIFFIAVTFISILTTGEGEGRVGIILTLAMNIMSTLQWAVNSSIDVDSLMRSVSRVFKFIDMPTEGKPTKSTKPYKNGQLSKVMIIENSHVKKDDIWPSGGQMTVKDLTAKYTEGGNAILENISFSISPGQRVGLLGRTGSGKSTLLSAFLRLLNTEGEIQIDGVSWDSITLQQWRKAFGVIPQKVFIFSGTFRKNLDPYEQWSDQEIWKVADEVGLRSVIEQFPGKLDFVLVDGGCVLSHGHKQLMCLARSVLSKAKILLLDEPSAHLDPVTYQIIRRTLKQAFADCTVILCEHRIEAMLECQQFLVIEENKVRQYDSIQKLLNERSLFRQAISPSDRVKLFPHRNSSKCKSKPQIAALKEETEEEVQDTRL

| SMILES | EC50 |
| --- | --- |
| Cc1c(Cl)c(C(F)(F)F)nn1-c1cccc(C(=O)N(C)c2ccc3cn(C)nc3c2)c1 [compound 122, 3-[4-Chloro-5-methyl-3-(trifluoromethyl)pyrazol-1-yl]-N-methyl-N-(2-methylindazol-6-yl)benzamide] | 1000 to 2000 nM |
| CC(C)Oc1cc(C(F)(F)F)nn1-c1cccc(C(=O)N(C)c2ccc3c(c2)OCO3)c1 [compound 131, N-(1,3-benzodioxol-5-yl)-3-[5-isopropoxy-3-(trifluoromethyl)pyrazol-1-yl]-N-methyl-benzamide] | < 1000 nM |
| Cc1nc2cc(F)c(N(C)C(=O)c3cccc(-n4nc(C(F)(F)F)c(Cl)c4COc4ccc(C(=O)O)cc4)c3)cc2o1 [compound 234, 4-[[4-Chloro-2-[3-[(5-fluoro-2-methyl-1,3-benzoxazol-6-yl)-methyl-carbamoyl]phenyl]-5-(trifluoromethyl)pyrazol-3-yl]methoxy]benzoic acid] | < 1000 nM |
| CN(C(=O)c1cccc(-n2nc(C(F)(F)F)c(Cl)c2COC2CC(C(=O)O)C2)c1)c1ccc2c(c1)OC(F)(F)O2 (centres unmarked) [compound 257, 3-[[4-Chloro-2-[3-[(2,2-difluoro-1,3-benzodioxol-5-yl)-methyl-carbamoyl]phenyl]-5-(trifluoromethyl)pyrazol-3-yl]methoxy]cyclobutanecarboxylic acid] | < 1000 nM |
| Cc1nn(-c2cccc(C(=O)N(C)c3ccc4c(c3)COC4)c2)c(C)c1Cl [compound 057] | 1000 to 2000 nM |
| CN(C(=O)c1cccc(-n2nc(C(F)(F)F)c(Cl)c2OCc2ccc(C(=O)O)cc2)c1)c1ccc2c(c1)OCO2 [compound 159, 4-[[2-[3-[1,3-Benzodioxol-5-yl(methyl)carbamoyl]phenyl]-4-chloro-5-(trifluoromethyl)pyrazol-3-yl]oxymethyl]benzoic acid] | < 1000 nM |
| Cc1noc2cc(N(C)C(=O)c3cccc(-n4nc(C(F)(F)F)c(Cl)c4COc4ccc(C(=O)O)cc4)c3)ccc12 [compound 245, 4-[[4-Chloro-2-[3-[methyl-(3-methyl-1,2-benzoxazol-6-yl)carbamoyl]phenyl]-5-(trifluoromethyl)pyrazol-3-yl]methoxy]benzoic acid] | < 1000 nM |
| CO[C@H](c1ccccc1)c1c(Cl)c(C)nn1-c1cccc(C(=O)N(C)c2ccc3c(c2)OCO3)c1 (racemic) [compound 117, N-(1,3-Benzodioxol-5-yl)-3-[4-chloro-5-[(rac)-methoxy (phenyl)methyl]-3-methyl-pyrazol-1-yl]-N-methyl-benzamide] | < 1000 nM |
| Cc1cc(C(F)(F)F)n(-c2cc(C(=O)N(C)c3ccc4c(c3)OCO4)ccn2)n1 [compound 169, N-(1,3-Benzodioxol-5-yl)-N-methyl-2-[3-methyl-5-(trifluoromethyl)pyrazol-1-yl]pyridine-4-carboxamide] | > 2000 nM |
| COc1nc2cc(NC(=O)c3cccc(-n4nc(C)c(Cl)c4C)c3)ccc2o1 [Int-063, 3-(4-Chloro-3,5-dimethyl-pyrazol-1-yl)-N-(2-methoxy-1,3-benzoxazol-5-yl)benzamide] | > 2000 nM |
| Cc1cc(C(=O)O)n(-c2cccc(C(=O)N(C)c3ccc4c(c3)OCO4)c2)n1 [compound 065, 2-[3-[1,3-benzodioxol-5-yl(methyl)carbamoyl]phenyl]-5-methyl-pyrazole-3-carboxylic acid] | > 2000 nM |
| COc1ccc(N(C)C(=O)c2cccc(-n3nc(C)c(Cl)c3C)c2)cn1 [compound 021, 3-(4-Chloro-3,5-dimethyl-pyrazol-1-yl)-N-(6-methoxy-3-pyridyl)-N-methyl-benzamide] | > 2000 nM |
| Cc1nn(-c2cccc(C(=O)N(C)c3ccc4c(c3)OCO4)c2)c(C(F)(F)F)c1Cl [compound 102, N-(1,3-Benzodioxol-5-yl)-3-[4-chloro-3-methyl-5-(trifluoromethyl)pyrazol-1-yl]-N-methyl-benzamide] | < 1000 nM |
| COc1cccc(N(C)C(=O)c2cccc(-n3nc(C)c(Cl)c3C)c2)c1 [compound 068, 3-(4-Chloro-3,5-dimethyl-pyrazol-1-yl)-N-(3-methoxyphenyl)-N-methyl-benzamide] | < 1000 nM |
| Cc1noc2cc(N(C)C(=O)c3cccc(-n4nc(C(F)(F)F)cc4OCc4ccc(C(=O)O)cc4)c3)ccc12 [compound 263, 4-[[2-[3-[Methyl-(3-methyl-1,2-benzoxazol-6-yl)carbamoyl]phenyl]-5-(trifluoromethyl)pyrazol-3-yl]oxymethyl]benzoic acid] | > 2000 nM |

Further lines, results first:

| EC50 | SMILES |
| --- | --- |
| 1000 to 2000 nM | Cc1nc2ccc(NC(=O)c3cccc(-n4nc(C(F)(F)F)c(Cl)c4C)c3)cc2o1 [compound 120, 3-[4-Chloro-5-methyl-3-(trifluoromethyl)pyrazol-1-yl]-N-(2-methyl-1,3-benzoxazol-6-yl)benzamide] |
| < 1000 nM | COC(=O)c1ccc(COc2cc(C(F)(F)F)nn2-c2cccc(C(=O)N(C)c3ccc4c(c3)OCO4)c2)cc1 [compound 152, Methyl-4-[[2-[3-[1,3-benzodioxol-5-yl(methyl)carbamoyl]phenyl]-5-(trifluoromethyl)pyrazol-3-yl]oxymethyl]benzoate] |
| < 1000 nM | Cc1nc2cc(F)c(N(C)C(=O)c3cccc(-n4nc(C(F)(F)F)c(Cl)c4OCc4ccc(C(=O)O)cc4)c3)cc2o1 [compound 212, 4-[[4-Chloro-2-[3-[(5-fluoro-2-methyl-1,3-benzoxazol-6-yl)-methyl-carbamoyl]phenyl]-5-(trifluoromethyl)pyrazol-3-yl]oxymethyl]benzoic acid] |
| > 2000 nM | Cc1nn(-c2cccc(C(=O)N(C)c3ccc4c(c3)ncn4C)c2)c(C)c1Cl [compound 024, 3-(4-Chloro-3,5-dimethyl-pyrazol-1-yl)-N-methyl-N-(1-methylbenzimidazol-5-yl)benzamide] |
| < 1000 nM | CN(C(=O)c1cccc(-n2nc(C(F)(F)F)cc2-c2ccc(Cl)s2)c1)c1ccc2c(c1)OCO2 [compound 164, N-(1,3-Benzodioxol-5-yl)-3-[5-(5-chloro-2-thienyl)-3-(trifluoromethyl)pyrazol-1-yl]-N-methyl-benzamide] |
| > 2000 nM | Cc1cc2c(cc1NC(=O)c1cccc(-n3nc(C)c(Cl)c3C)c1)OCO2 [Int-041, 3-(4-Chloro-3,5-dimethyl-pyrazol-1-yl)-N-(6-methyl-1,3-benzodioxol-5-yl)benzamide] |
| > 2000 nM | Cc1nn(-c2cccc(C(=O)Nc3ccc4oc(C5CC5)nc4c3)c2)c(C)c1Cl [Int-053, 3-(4-Chloro-3,5-dimethyl-pyrazol-1-yl)-N-(2-cyclopropyl-1,3-benzoxazol-5-yl)benzamide] |
| 1000 to 2000 nM | Cc1c(Cl)c(C(F)(F)F)nn1-c1cccc(C(=O)N(C)c2cc3c(cc2C=O)OCO3)c1 [compound 161, 3-[4-chloro-5-methyl-3-(trifluoromethyl)pyrazol-1-yl]-N-(6-formyl-1,3-benzodioxol-5-yl)-N-methyl-benzamide] |
| < 1000 nM | Cc1nn(-c2cccc(C(=O)N(C)c3ccc4c(c3)OCO4)c2)c(C2CC2)c1Cl [compound 094, N-(1,3-Benzodioxol-5-yl)-3-(4-chloro-5-cyclopropyl-3-methyl-pyrazol-1-yl)-N-methyl-benzamide] |
| > 2000 nM | Cc1nc2ccc(N(C)C(=O)c3cccc(-n4nc(C)c(Cl)c4C)c3)cn2n1 [compound 079, 3-(4-Chloro-3,5-dimethyl-pyrazol-1-yl)-N-methyl-N-(2-methyl-[1,2,4]triazolo[1,5-a]pyridin-6-yl)benzamide] |
| 1000 to 2000 nM | Cc1cc2ncc(N(C)C(=O)c3cccc(-n4nc(C(F)(F)F)c(Cl)c4COc4ccc(C(=O)O)cc4)c3)cn2n1 [compound 238, 4-[[4-Chloro-2-[3-[methyl-(2-methylpyrazolo[1,5-a]pyrimidin-6-yl)carbamoyl]phenyl]-5-(trifluoromethyl)pyrazol-3-yl]methoxy]benzoic acid] |
| < 1000 nM | Cc1c(C2CC2)c(C(F)(F)F)nn1-c1cccc(C(=O)N(C)c2ccc3c(c2)OCO3)c1 [compound 104, N-(1,3-Benzodioxol-5-yl)-3-[4-cyclopropyl-5-methyl-3-(trifluoromethyl)pyrazol-1-yl]-N-methyl-benzamide] |
| 1000 to 2000 nM | Cc1nn(-c2cccc(C(=O)Nc3ccc4oc(C(F)(F)F)nc4c3)c2)c(C)c1Cl [compound 054, 3-(4-Chloro-3,5-dimethyl-pyrazol-1-yl)-N-[2-(trifluoromethyl)-1,3-benzoxazol-5-yl]benzamide] |
| > 2000 nM | Cc1c(Cl)c(C(F)(F)F)nn1-c1cccc(C(=O)Nc2ccc3c(c2CO)OCO3)c1 [compound 206, 3-[4-chloro-5-methyl-3-(trifluoromethyl)pyrazol-1-yl]-N-[4-(hydroxymethyl)-1,3-benzodioxol-5-yl]benzamide] |
